Assay results: patent publication US8664238B2, “Indenoisoquinolinone derivatives, manufacturing method and medical use thereof” (China Pharmaceutical University, priority 2009, dated 2014)

Columns and labels:
[1] = system: Human breast cancer cells MCF-7; experiment: Proliferation of MCF-7 breast cancer cells (MTT detection method); assay type: cell-based; conditions: MCF-7 cells, 48 h incubation with drug, read-out: IC50, inhibition on the proliferation of MCF-7 breast cancer cells
Protocol: The method described in Journal of Medicinal Chemistry. 1997. 40. 1407-1416 has been used and slightly modified. Human breast cancer cells MCF-7, purchased from Nanjing Keygen Biotechnology Inc. MCF-7 cells were incubated in RPMI1640 medium (containing 10% calf serum, 100 U/ml of penicillin and 100 μg/ml of streptomycin) in a 37° C. incubator with 5% CO2. The medium was replaced once about two days and cells were subcultured once every 3-4 days. In the subculturing, the old medium was discarded and the culture was washed twice with D-hanks (for washing off the phenol red in the medium to eliminate the influence of phenol red on the digestion effect of trypsin). Then, a small amount of 0.25% trypsin (25 mg trypsin, 100 ml D-hanks) was added and the contents were paved in the bottle bottom smoothly. […] Trypsin was discarded and the cells were washed with D-hanks, then fresh medium was added and mixed by blowing. The cultures were put into new culture flasks and cultured continuously. After cell count, a small volume of cell suspension was taken and mixed with 0.4% trypan blue in the same volume by blowing with a straw. A little mixture (15 μl-20 μl) was taken and dropped into the interspace between the counting plate and the coverslip without bubbles. […] Dead cells can be stained by trypan blue, while living cells cannot. The counting plate was moved so as to see the counting squares, then unstained cells in four diagonal grids were counted. The cells counted include those on the right line and the top line but not those on the bottom line and the left line. The number of cells/ml=the number of cells in 25% grid×10^4. […] The control group was that in which the anticancer drug was replaced with the same volume of medium and the blank group is 200 μl medium. After incubating for 48 h, 5 mg/ml MTT was added in 20 μl per well and the cultures were further incubated for 4 h. Then, the liquid was suck out carefully and 150 μl of DMSO was added per well. OD values of all wells were measured in 570 nm and the inhibition rate on the cell proliferation and values of IC50 were calculated.

[2] = system: H460 human lung cancer cells; experiment: Proliferation experiment of H460 human lung cancer cells; assay type: cell-based
Protocol: Meanwhile, the proliferation experiment of H460 human lung cancer cells was also conducted.

SMILES	IC50 [1]	IC50 [2]
O=C1c2ccccc2-c2c1c1ccccc1c(=O)n2-c1ccc(OCCCN2CCCCC2)cc1 [Ib, 6-(4-(3-piperidinylpropoxy)phenyl)-5H-indeno[1,2-c]isoquinoline-5,11(6H)-diketone]	10.9 µM	
CCN(CC)CCCOc1ccc(-n2c3c(c4ccccc4c2=O)C(=O)c2ccccc2-3)cc1 [If, 6-(4-(3-diethylaminopropoxy)phenyl)-5H-indeno[1,2-c]isoquinoline-5,11(6H)-diketone]	8.52 µM	0.63 µM
CN(C)CCCOc1ccc(-n2c3c(c4ccccc4c2=O)C(=O)c2ccccc2-3)cc1 [Id, 6-(4-(3-dimethylaminopropoxy)phenyl)-5H-indeno[1,2-c]isoquinoline-5,11(6H)-diketone]	27.9 µM	
CN(C)CCOc1ccc(-n2c3c(c4ccccc4c2=O)C(=O)c2ccccc2-3)cc1 [Ic, 6-(4-(2-dimethylaminoethoxy)phenyl)-5H-indeno[1,2-c]isoquinoline-5,11(6H)-diketone]	2.13 µM	
O=C1c2ccccc2-c2c1c1ccccc1c(=O)n2-c1ccc(OCCN2CCCCC2)cc1 [Ia, 6-(4-(2-piperidinylethoxy)phenyl)-5H-indeno[1,2-c]isoquinoline-5,11(6H)-diketone]	9.55 µM	
CCN(CC)CCOc1ccc(-n2c3c(c4ccccc4c2=O)C(=O)c2ccccc2-3)cc1 [Ie, 6-(4-(2-diethylaminoethoxy)phenyl)-5H-indeno[1,2-c]isoquinoline-5,11(6H)-diketone]	7.8 µM	
CN1CCN(CCOc2ccc(-n3c4c(c5ccccc5c3=O)C(=O)c3ccccc3-4)cc2)CC1 [Ig, 6-(4-(2-(4-methylpiperazinyl)ethoxy)phenyl)-5H-indeno[1,2-c]isoquinoline-5,11(6H)-diketone]	5.82 µM	

The remaining lines, values ahead:

IC50 [1]	IC50 [2]	SMILES
5.89 µM		CN1CCN(CCCOc2ccc(-n3c4c(c5ccccc5c3=O)C(=O)c3ccccc3-4)cc2)CC1 [Ih, 6-(4-(3-(4-methylpiperazinyl)propoxy)phenyl)-5H-indeno[1,2-c]isoquinoline-5,11(6H)-diketone]
79.9 µM		CC(C)N(CCOc1ccc(-n2c3c(c4ccccc4c2=O)C(=O)c2ccccc2-3)cc1)C(C)C [Ik, 6-(4-(2-diisopropylaminoethoxy)phenyl)-5H-indeno[1,2-c]isoquinoline-5,11(6H)-diketone]
11.3 µM		O=C1c2ccccc2-c2c1c1ccccc1c(=O)n2-c1ccc(OCCN2CCCC2)cc1 [Ii, 6-(4-(2-pyrrolidinylethoxy)phenyl)-5H-indeno[1,2-c]isoquinoline-5,11(6H)-diketone]
24.7 µM		O=C1c2ccccc2-c2c1c1ccccc1c(=O)n2-c1ccc(OCCCN2CCCC2)cc1 [Ij, 6-(4-(3-pyrrolidinylpropoxy)phenyl)-5H-indeno[1,2-c]isoquinoline-5,11(6H)-diketone]
